Source: paper PMC4838859, “Genetically encoded photocrosslinkers locate the high-affinity binding site of antidepressant drugs in the human serotonin transporter” (Nature Communications, 2016)

Legend:
[1] = system: hSERT S2-binding site mutants (W103azF, Y107azF, W182azF, Y487azF, K490azF); assay: Ultraviolet-induced photocrosslinking of [3H]labelled drug in HEK293T cells; settings: 100 nM [3H]drug, 2 h 4 °C, UV 15 min; five S2 azF mutants
[2] = biological target: T1, hSERT Y95azF (Homo sapiens, UniProt P31645); settings: 100 nM [3H]drug, 2 h 4 °C, UV 15 min, 50–100 kDa segment
[3] = biological target: T2, WT hSERT (Homo sapiens, UniProt P31645); assay: Saturation binding of [3H]vortioxetine / [3H]imipramine to HEK293T membranes expressing hSERT; set-up: expressed in transfected cells; host or cells: HEK293T; settings: [3H]ligand saturation binding
[4] = biological target: T3, SERT WT (Homo sapiens, UniProt P31645); assay: [3H]5-HT saturation uptake in the presence of a fixed concentration of vortioxetine (competitive inhibition); format: cell-based; set-up: expressed in transfected cells; host or cells: HEK293T; settings: control 4.21 ± 0.45
[5] = biological target: T3, SERT WT; assay: [3H]5-HT uptake assay (kinetics and uptake inhibition) in HEK293T cells
[6] = biological target: T1, hSERT Y95azF; assay: as above
[7] = biological target: hSERT I168azF (Homo sapiens, UniProt P31645); assay: as above
[8] = biological target: hSERT Y175azF (Homo sapiens, UniProt P31645); assay: as above; settings: [3H]5-HT uptake inhibition, Y175azF (S1 mutant); mean ± s.e.m.
[9] = biological target: hSERT F335azF (Homo sapiens, UniProt P31645); assay: as above; settings: [3H]5-HT uptake inhibition, F335azF (S1 mutant); mean ± s.e.m.
[10] = biological target: T4, hSERT F341azF (Homo sapiens, UniProt P31645); assay: as above; settings: [3H]5-HT uptake inhibition, F341azF (S1 mutant); mean ± s.e.m.
[11] = biological target: hSERT W103azF (Homo sapiens, UniProt P31645); assay: as above; settings: [3H]5-HT uptake inhibition, W103azF (S2 mutant); mean ± s.e.m.
[12] = biological target: hSERT Y107azF (Homo sapiens, UniProt P31645); assay: as above
[13] = biological target: hSERT W182azF (Homo sapiens, UniProt P31645); assay: as above; settings: [3H]5-HT uptake inhibition, W182azF (S2 mutant); mean ± s.e.m.
[14] = biological target: hSERT Y487azF (Homo sapiens, UniProt P31645); assay: as above; settings: [3H]5-HT uptake inhibition, Y487azF (S2 mutant); mean ± s.e.m.
[15] = biological target: hSERT K490azF (Homo sapiens, UniProt P31645); assay: as above; settings: [3H]5-HT uptake inhibition, K490azF (S2 mutant); mean ± s.e.m.
[16] = biological target: T2, WT hSERT; assay: Ultraviolet-induced photocrosslinking of [3H]labelled drug in HEK293T cells; settings: 100 nM [3H]drug, 2 h 4 °C, UV 15 min
[17] = biological target: T4, hSERT F341azF; assay: as above

T4 sequence (P31645 whole entry): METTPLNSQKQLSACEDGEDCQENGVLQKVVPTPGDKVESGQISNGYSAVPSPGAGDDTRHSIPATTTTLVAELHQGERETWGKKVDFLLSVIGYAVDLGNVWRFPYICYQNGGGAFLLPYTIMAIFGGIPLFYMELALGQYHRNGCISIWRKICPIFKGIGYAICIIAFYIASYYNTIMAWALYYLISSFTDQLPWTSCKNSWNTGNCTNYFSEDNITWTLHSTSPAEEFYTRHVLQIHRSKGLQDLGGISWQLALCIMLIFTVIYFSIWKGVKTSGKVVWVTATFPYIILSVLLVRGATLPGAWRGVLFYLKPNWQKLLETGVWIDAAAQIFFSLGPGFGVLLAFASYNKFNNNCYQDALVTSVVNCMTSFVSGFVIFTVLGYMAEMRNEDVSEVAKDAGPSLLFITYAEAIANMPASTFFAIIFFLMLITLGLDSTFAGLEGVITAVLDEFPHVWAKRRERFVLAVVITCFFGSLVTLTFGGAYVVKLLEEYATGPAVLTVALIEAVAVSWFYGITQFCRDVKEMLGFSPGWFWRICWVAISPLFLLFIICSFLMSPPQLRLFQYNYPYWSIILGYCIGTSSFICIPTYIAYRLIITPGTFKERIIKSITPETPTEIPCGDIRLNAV
T3 sequence (P31645 whole entry): as above
T2 sequence (P31645 whole entry): as above
T1 sequence (P31645 whole entry): as above
Sequence of hSERT Y107azF (P31645 whole entry): as above
Sequence of hSERT I168azF (P31645 whole entry): as above
Sequence of hSERT K490azF (P31645 whole entry): as above
Sequence of hSERT W182azF (P31645 whole entry): as above

CN(C)CCCN1c2ccccc2CCc2ccccc21 [imipramine]
ultraviolet-induced crosslinking (radioactivity signal vs non-UV control) [1]: did not crosslink

Cc1ccc(Sc2ccccc2N2CCNCC2)c(C)c1 [vortioxetine]
ultraviolet-induced crosslinking (radioactivity signal vs non-UV control) [2]: no signal was detected
Kd ([3]; WT hSERT C-terminally fused to 1D4 tag, mean±s.e.m.): 6.3 ± 0.7 nM
Kd ([3]; WT hSERT without 1D4 tag): 6.1 ± 1.1 nM
Vmax of 5-HT uptake in presence of inhibitor ([4]; 0.75 µM vortioxetine): 4.19 ± 0.50 pmol min-1 per well
Vmax of 5-HT uptake in presence of inhibitor ([4]; 1 µM vortioxetine): 4.03 ± 0.36 pmol min-1 per well
Ki [5]: 202 ± 19 nM
decrease in potency relative to WT hSERT ([6]; Y95azF vs WT, Ki in [3H]5-HT uptake inhibition): 6 fold
Ki ([6]; [3H]5-HT uptake inhibition, Y95azF (S1 mutant), mean ± s.e.m.): 1240 ± 125 nM
increase in potency (more sensitive) relative to WT hSERT ([7]; I168azF vs WT, Ki in [3H]5-HT uptake inhibition): 10 fold
Ki ([7]; [3H]5-HT uptake inhibition, I168azF (S1 mutant), mean ± s.e.m.): 19 ± 3 nM
Ki [8]: 53 ± 6 nM
Ki [9]: 54 ± 9 nM
Ki [10]: 43 ± 5 nM
Ki [11]: 149 ± 12 nM
increase in potency (more sensitive) relative to WT hSERT ([12]; Y107azF vs WT, Ki in [3H]5-HT uptake inhibition): 5 fold
Ki ([12]; [3H]5-HT uptake inhibition, Y107azF (S2 mutant), mean ± s.e.m.): 38 ± 9 nM
Ki [13]: 74 ± 9 nM
Ki [14]: 96 ± 16 nM
Ki [15]: 56 ± 20 nM
ultraviolet-induced crosslinking (radioactivity signal) [16]: no radioactivity signal was observed
ultraviolet-induced crosslinking (radioactivity signal vs non-UV control) ([17]; 100 nM [3H]drug, 2 h 4 °C, UV 15 min, 50–100 kDa segment): significant ultraviolet-dependent radioactivity signal was detected
displacement of crosslinking radioactivity signal by unlabelled inhibitor ([17]; 100 μM unlabelled inhibitor added before ultraviolet exposure): full displacement
ultraviolet-induced crosslinking (radioactivity signal vs non-UV control) [1]: indistinguishable
